The values that follow come from patent US9212168B2 (priority 2011, dated 2015).

The subject of experiment [1] is HCV genotype 1b replicon. The experiment in a line: HCV genotype 1b replicon assay (Renilla luciferase readout). The format is cell-based, hepatitis C virus. To be noted: Hepatitis C virus, read-out: Genotype 1b. An outline of the steps: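 Reported as pEC50 derived from a 4-parameter fit of Renilla luciferase activity against concentration. Replicon cells (APC144, Huh7 background) were exposed to compound for 48 h in G418-free medium with final 0.5% DMSO, after seeding at 10,000 cells/well and 4 h adherence.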

The test system of experiment [2] is HCV genotype 1a Y93H resistant mutant replicon. In words: Replicon assay against resistant mutant 1a Y93H (transient transfection). It counts as cell-based. As to conditions: Hepatitis C virus, read-out: Genotype 1a Y93H. As to the method: Assay 3: Replicon Assays Against Resistant Mutants […]
Potencies of test compounds against additional mutations of interest were determined using transient transfection assays. These mutants included genotype 1a Y93C, Y93H, M28T, Q30E, Q30K, L31M, and Y93N. The mutation was first introduced into the parental plasmid by site-directed mutagenesis. The replicon plasmid was then linearized and in vitro transcribed to RNA. The RNA was used to transiently transfect Huh-LUNET cells (obtained from ReBLikon GmbH, Schriesheim, Germany) by electroporation, and the potencies of test compounds against the mutants were determined as previously described.

Experiment [3] concerns HCV genotype 3a NS5A chimeric replicon. In words: Replicon assay against NS5A sequence of genotype 3a, intergenotypic chimera. The format is cell-based. To be noted: Hepatitis C virus, read-out: Genotype 3a. As to the method:
(§1) Assay 4: Replicon Assays Against NS5A Sequences of Other Genotypes
(§2) Potencies of test compounds against NS5A sequences of other genotypes were determined by creating intergenotypic chimeras. The entire NS5A gene from genotypes 2a, 2b, 3a, 4a, 5a, and 6a, or the nucleotide sequence encoding amino acids 11-118 of NS5A, was subcloned into a genotype 1b replicon. For genotype 2a, intergenotypic chimeras with both the JFH and the J6 strain were created. […] Since the majority of genotype 2a sequences in public databases contain the L31M sequence variant, the use of the J6 genotype 2a sequence may better reflect the antiviral potency of NS5A inhibitors.
(§3) These chimeric replicon plasmids were then linearized and in vitro transcribed to RNA. The RNA was used to transiently or stably transfect Huh-LUNET cells by electroporation, and the potencies of test compounds against the chimeras were determined as previously described.
In general terms: Replicon systems follow genome replication, usually without infectious particles.

Experiment [4] concerns HCV genotype 2a (J6 strain) NS5A chimeric replicon. The experiment in a line: Replicon assay against NS5A sequence of genotype 2a (J6 strain), intergenotypic chimera. The format is cell-based. To be noted: Hepatitis C virus, read-out: Genotype 2a (J6). The procedure: as §1, §2, §3
For experiment [5], the system named is HCV genotype 1a replicon. The experiment in a line: HCV genotype 1a replicon assay (NS3 protease activity readout). It counts as cell-based, hepatitis C virus. To be noted: Hepatitis C virus, read-out: Genotype 1a, HCV genotype 1a replicon. In outline:
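EC50 values came from a 4-parameter robust fit of fluorescence (ex 340, em 509 nm) produced by NS3-specific protease in lysates, assayed with 15 μM FRET substrate for 20 min at 37° C, after 48 or 72 hours of compound exposure (0.5% DMSO) of Huh7.5-derived APC89 genotype 1a replicon cells.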

Each structure is given as a SMILES string.

As to `COC(=O)N[C@H](C(=O)N1C[C@@H](C)C[C@H]1c1nc(-c2ccc(-c3ccc(C(=O)Nc4ccc(N5CCN(C(=O)C(C)(C)C)C[C@H]5C)nc4)c(F)c3OC(F)(F)F)cc2)c[nH]1)C1CCOCC1` [Example 21, Methyl ((S)-2-((2S,4S)-2-(4-(3′-fluoro-4′-((6-((R)-2-methyl-4-pivaloyl-piperazin-1-yl)pyridin-3-yl)carbamoyl)-2′-(trifluoromethoxy)-[1,1′-biphenyl]-4-yl)-1H-imidazol-2-yl)-4-methylpyrrolidin-1-yl)-2-oxo-1-(tetrahydro-2H-pyran-4-yl)ethyl)carbamate], the EC50 was under 0.1 nM in experiment [1]; 0.1 to 1 nM in experiment [2]; 0.1 to 1 nM in experiment [3]; 0.1 to 1 nM in experiment [4]; under 0.1 nM in experiment [5].
`COC(=O)N[C@H](C(=O)N1C[C@@H](C)C[C@H]1c1nc(-c2ccc(-c3ccc(C(=O)Nc4ccc(N5CCN(C(=O)C(C)(C)C)C[C@H]5C)nc4)cc3OC(F)(F)F)cc2)c(Cl)[nH]1)C(C)C` [Example 12, ((S)-1-{(2S,4S)-2-[5-Chloro-4-(4′-{6-[(R)-4-(2,2-dimethyl-propionyl)-2-methyl-piperazin-1-yl]-pyridin-3-ylcarbamoyl}-2′-trifluoromethoxy-biphenyl-4-yl)-1H-imidazol-2-yl]-4-methyl-pyrrolidine-1-carbonyl}-2-methyl-propyl)-carbamic acid methyl ester]: the EC50 in experiment [1] was under 0.1 nM; in experiment [2], 1 to 10 nM; in experiment [3], 1 to 10 nM; in experiment [4], 1 to 10 nM; in experiment [5], under 0.1 nM.
